Measured values: publication PMC9007595 (Molecular microbiology, 2020)

T1: Mtb HtpG (Mycobacterium tuberculosis, UniProt P9WMJ7)
T1 sequence (P9WMJ7 1-647): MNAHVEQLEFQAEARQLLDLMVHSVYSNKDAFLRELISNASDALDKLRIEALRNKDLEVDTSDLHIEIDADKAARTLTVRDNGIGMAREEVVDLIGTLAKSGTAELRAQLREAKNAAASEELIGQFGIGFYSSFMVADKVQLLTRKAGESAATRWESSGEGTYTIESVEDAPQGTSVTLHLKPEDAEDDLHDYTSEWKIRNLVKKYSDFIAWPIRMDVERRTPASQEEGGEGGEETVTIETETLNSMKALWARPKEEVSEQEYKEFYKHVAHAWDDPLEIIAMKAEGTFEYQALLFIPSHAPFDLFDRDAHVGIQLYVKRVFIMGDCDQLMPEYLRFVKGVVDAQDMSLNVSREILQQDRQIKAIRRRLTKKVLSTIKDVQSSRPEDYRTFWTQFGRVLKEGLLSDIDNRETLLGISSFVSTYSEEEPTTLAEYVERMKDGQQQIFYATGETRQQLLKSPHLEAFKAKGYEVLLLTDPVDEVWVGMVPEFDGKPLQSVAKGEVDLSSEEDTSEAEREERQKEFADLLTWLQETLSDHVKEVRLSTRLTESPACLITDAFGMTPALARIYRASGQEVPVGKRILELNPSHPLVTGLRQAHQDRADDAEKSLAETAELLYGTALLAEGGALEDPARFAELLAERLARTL


Assays:
[1] = target: yeast Hsp90 (S. cerevisiae Hsp82) (Saccharomyces cerevisiae, UniProt P02829); test: ATPase activity assay with purified protein; format: biochemical
Mtb HtpG = target: T1, Mtb HtpG; test: […]; format: binding
SEC = target: the molecule itself; test: SEC

Chain of yeast Hsp90 (S. cerevisiae Hsp82) (P02829 whole entry): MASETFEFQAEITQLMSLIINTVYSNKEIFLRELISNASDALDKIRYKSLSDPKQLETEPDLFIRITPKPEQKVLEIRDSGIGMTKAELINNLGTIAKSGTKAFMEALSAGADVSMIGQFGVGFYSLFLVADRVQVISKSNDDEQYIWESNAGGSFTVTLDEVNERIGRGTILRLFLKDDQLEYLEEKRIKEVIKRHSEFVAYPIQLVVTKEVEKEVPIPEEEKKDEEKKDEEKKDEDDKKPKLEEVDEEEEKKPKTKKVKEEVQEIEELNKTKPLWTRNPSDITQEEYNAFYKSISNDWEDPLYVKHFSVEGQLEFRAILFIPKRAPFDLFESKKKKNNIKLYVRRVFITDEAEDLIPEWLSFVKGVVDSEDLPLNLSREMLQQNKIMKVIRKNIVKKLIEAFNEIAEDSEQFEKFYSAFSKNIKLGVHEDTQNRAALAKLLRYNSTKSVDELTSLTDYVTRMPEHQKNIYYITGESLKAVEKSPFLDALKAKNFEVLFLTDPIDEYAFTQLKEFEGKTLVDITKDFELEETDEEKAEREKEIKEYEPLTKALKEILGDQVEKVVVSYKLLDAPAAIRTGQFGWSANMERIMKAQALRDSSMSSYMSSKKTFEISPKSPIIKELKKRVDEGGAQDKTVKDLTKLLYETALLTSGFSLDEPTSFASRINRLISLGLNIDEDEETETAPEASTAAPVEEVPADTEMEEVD

Row | Molecule | ATPase activity assay with purified protein (Figure S19) [1] | Kd (Mtb HtpG) [µM] | binding result (SEC)
1 | COC1=C2C[C@@H](C)C[C@H](OC)[C@H](O)[C@@H](C)/C=C(\C)[C@H](OC(N)=O)[C@@H](OC)/C=C\C=C(/C)C(=O)NC(=CC1=O)C2=O [GA, geldanamycin] | Both proteins exhibited low ATPase activity that was inhibited by GA (Figure S19) | ~15.7 | 
2 | purified Mtb HtpG (size exclusion chromatography) (natural protein) MNAHVEQLEFQAEARQLLDLMVHSVYSNKDAFLRELISNASDALDKLRIEALRNKDLEVDTSDLHIEIDADKAARTLTVRDNGIGMAREEVVDLIGTLAKSGTAELRAQLREAKNAAASEELIGQFGIGFYSSFMVADKVQLLTRKAGESAATRWESSGEGTYTIESVEDAPQGTSVTLHLKPEDAEDDLHDYTSEWKIRNLVKKYSDFIAWPIRMDVERRTPASQEEGGEGGEETVTIETETLNSMKALWARPKEEVSEQEYKEFYKHVAHAWDDPLEIIAMKAEGTFEYQALLFIPSHAPFDLFDRDAHVGIQLYVKRVFIMGDCDQLMPEYLRFVKGVVDAQDMSLNVSREILQQDRQIKAIRRRLTKKVLSTIKDVQSSRPEDYRTFWTQFGRVLKEGLLSDIDNRETLLGISSFVSTYSEEEPTTLAEYVERMKDGQQQIFYATGETRQQLLKSPHLEAFKAKGYEVLLLTDPVDEVWVGMVPEFDGKPLQSVAKGEVDLSSEEDTSEAEREERQKEFADLLTWLQETLSDHVKEVRLSTRLTESPACLITDAFGMTPALARIYRASGQEVPVGKRILELNPSHPLVTGLRQAHQDRADDAEKSLAETAELLYGTALLAEGGALEDPARFAELLAERLARTL |  |  | binds
